What is called pEC50 is the EC50 on a negative log10 scale, so that one unit is a factor of ten. What is called CC50 is the concentration that lowers cell viability or growth by half.

pEC50: −log10 of the molar value. Read-outs that look alike come from different tables or passages of the source.

EC50 and CC50 data for 16 molecules are collected here from patent US20250115620A1, “BRIDGED TRICYCLIC CARBAMOYLPYRIDONE COMPOUNDS AND USES THEREOF” (Gilead Sciences, Inc., priority 2022, published 2025).

For one series, the system named is HIV-1 (IIIB). The series can be described thus: microbe, parasite or virus in culture. It counts as cell-based. The note with it: Human immunodeficiency virus 1, IIIB, MT4, 120 h, HIV-1 (IIIB) in MT-4 cells, 5 days incubation, Cell Titer Glo; read-out: MT4 EC50. For orientation: ATP-based viability assays read luminescence as a measure of living cells.
The next series has as its system pLAI reporter virus. The series can be described thus: microbe, parasite or virus in culture. The series is classed as cell-based, HIV. The note with it: Human immunodeficiency virus 1, MT4, 72 h.
A short description of another series: in vitro. The conditions noted are these: human, uninfected MT-4 cells.

With `CC1=NO[C@@]2(CC[C@H](C)N3C[C@H]2n2cc(C(=O)NCc4c(F)cc(F)cc4F)c(=O)c(O)c2C3=O)O1` [Example 92, (3′S,5R,7′R)-12′-hydroxy-3,3′-dimethyl-1′,11′-dioxo-N-(2,4,6-trifluorobenzyl)-1′,4′,5′,11′-tetrahydro-3′H,7′H-spiro[[1,4,2]dioxazole-5,6′-[2,7]methanopyrido[1,2-a][1,4]diazonine]-10′-carboxamide], the negative logarithm of the EC50 (pEC50) is 9.15 in the series with HIV-1 (IIIB), 6.39 in the series with pLAI reporter virus (read-out: RLUC 50% HS EC50) and 9.70 in the series on pLAI reporter virus (read-out: RLUC CCM EC50). Also, half-maximal cytotoxicity in “in vitro” (CC50 at 5 days) was put at 24900 nM.
For `CCC1=NO[C@@]2(CC[C@H](C)N3C[C@H]2n2cc(C(=O)NCc4c(F)cc(F)cc4F)c(=O)c(O)c2C3=O)O1` [Example 93, (3′S,5R,7′R)-3-ethyl-12′-hydroxy-3′-methyl-1′,11′-dioxo-N-(2,4,6-trifluorobenzyl)-1′,4′,5′,11′-tetrahydro-3′H,7′H-spiro[[1,4,2]dioxazole-5,6′-[2,7]methanopyrido[1,2-a][1,4]diazonine]-10′-carboxamide], in that order: 9.15, 6.21, 9.70 and 13600 nM.
For `CCC1=NO[C@@]2(CC[C@H](C)N3C[C@H]2n2cc(C(=O)NCc4ccc(F)cc4F)c(=O)c(O)c2C3=O)O1` [Example 94, (3′S,5R,7′R)—N-(2,4-difluorobenzyl)-3-ethyl-12′-hydroxy-3′-methyl-1′,11′-dioxo-1′,4′,5′,11′-tetrahydro-3′H,7′H-spiro[[1,4,2]dioxazole-5,6′-[2,7]methanopyrido[1,2-a][1,4]diazonine]-10′-carboxamide], in that order: 9.00, 6.16, 9.70 and 30200 nM.
Turning to `COC1=NO[C@@]2(CCCN3C[C@H]2n2cc(C(=O)NCc4c(F)cc(F)cc4F)c(=O)c(O)c2C3=O)C1` [Example 96, (5S,7′R)-12′-hydroxy-3-methoxy-1′,11′-dioxo-N-(2,4,6-trifluorobenzyl)-1′,4′,5′,11′-tetrahydro-3′H,4H,7′H-spiro[isoxazole-5,6′-[2,7]methanopyrido[1,2-a][1,4]diazonine]-10′-carboxamide], the negative-log EC50 (pEC50) in the series with HIV-1 (IIIB) is 8.96; in the series on pLAI reporter virus (read-out: RLUC 50% HS EC50) it was 8.92; in the series with pLAI reporter virus (read-out: RLUC CCM EC50) it was 9.70. In addition, the midpoint of cytotoxicity in “in vitro”, the CC50 at 5 days, lay at 31400 nM.
For `COC1=NO[C@@]2(CC[C@@H](C)N3C[C@H]2n2cc(C(=O)NCc4c(F)cc(F)cc4F)c(=O)c(O)c2C3=O)C1` [Example 97, (3′R,5S,7′R)-12′-hydroxy-3-methoxy-3′-methyl-1′,11′-dioxo-N-(2,4,6-trifluorobenzyl)-1′,4′,5′,11′-tetrahydro-3′H,4H,7′H-spiro[isoxazole-5,6′-[2,7]methanopyrido[1,2-a][1,4]diazonine]-10′-carboxamide], in that order: 8.60, 8.74, 9.30 and 10400 nM.
For `CC1=NO[C@@]2(CC[C@@H](C)N3C[C@H]2n2cc(C(=O)NCc4c(F)cc(F)cc4F)c(=O)c(O)c2C3=O)C1` [Example 98, (3′R,5S,7′R)-12′-hydroxy-3,3′-dimethyl-1′,11′-dioxo-N-(2,4,6-trifluorobenzyl)-1′,4′,5′,11′-tetrahydro-3′H,4H,7′H-spiro[isoxazole-5,6′-[2,7]methanopyrido[1,2-a][1,4]diazonine]-10′-carboxamide], in that order: 8.52, 8.13, 9.30 and 12700 nM.
`COC1=NO[C@@]2(CC[C@H](CF)N3C[C@H]2n2cc(C(=O)NCc4c(F)cc(F)cc4F)c(=O)c(O)c2C3=O)C1` [Example 99, (3′R,5S,7′R)-3′-(fluoromethyl)-12′-hydroxy-3-methoxy-1′,11′-dioxo-N-(2,4,6-trifluorobenzyl)-1′,4′,5′,11′-tetrahydro-3′H,4H,7′H-spiro[isoxazole-5,6′-[2,7]methanopyrido[1,2-a][1,4]diazonine]-10′-carboxamide]: the pEC50 in the series with HIV-1 (IIIB) was 8.82; in the series on pLAI reporter virus (read-out: RLUC 50% HS EC50), 7.71; with pLAI reporter virus (read-out: RLUC CCM EC50), 9.70. In “in vitro”, this molecule yielded a CC50 at 5 days of 36500 nM.
The matching figures for `COC1=NO[C@@]2(CC[C@H](CF)N3C[C@H]2n2cc(C(=O)NCc4ccc(F)cc4F)c(=O)c(O)c2C3=O)C1` [Example 100, (3′R,5S,7′R)—N-(2,4-difluorobenzyl)-3′-(fluoromethyl)-12′-hydroxy-3-methoxy-1′,11′-dioxo-1′,4′,5′,11′-tetrahydro-3′H,4H,7′H-spiro[isoxazole-5,6′-[2,7]methanopyrido[1,2-a][1,4]diazonine]-10′-carboxamide]: 8.82, 7.87, 9.52 and at least 50000 nM.
Take `C[C@H]1CC[C@]2(CC(=O)NO2)[C@H]2CN1C(=O)c1c(O)c(=O)c(C(=O)NCc3c(F)cc(F)cc3F)cn12` [Example 101, (3′S,5S,7′R)-12′-hydroxy-3′-methyl-1′,3,11′-trioxo-N-(2,4,6-trifluorobenzyl)-1′,4′,5′,11′-tetrahydro-3′H,7′H-spiro[isoxazolidine-5,6′-[2,7]methanopyrido[1,2-a][1,4]diazonine]-10′-carboxamide]: the negative logarithm of the EC50 (pEC50) in the series on HIV-1 (IIIB) is 7.01; with pLAI reporter virus (read-out: RLUC 50% HS EC50), 6.39; with pLAI reporter virus (read-out: RLUC CCM EC50) it was 7.47. In the series “in vitro”, the CC50 at 5 days is at least 50000 nM.
As to `C[C@H]1CC[C@@]2(CC(=O)N(Cc3ccc(F)cc3)O2)[C@H]2CN1C(=O)c1c(O)c(=O)c(C(=O)NCc3c(F)cc(F)cc3F)cn12` [Example 102, (3′S,5R,7′R)-2-(4-fluorobenzyl)-12′-hydroxy-3′-methyl-1′,3,11′-trioxo-N-(2,4,6-trifluorobenzyl)-1′,4′,5′,11′-tetrahydro-3′H,7′H-spiro[isoxazolidine-5,6′-[2,7]methanopyrido[1,2-a][1,4]diazonine]-10′-carboxamide], the pEC50 in the series with HIV-1 (IIIB) is 7.94; with pLAI reporter virus (read-out: RLUC 50% HS EC50), 7.52; in the series with pLAI reporter virus (read-out: RLUC CCM EC50), 8.70. This molecule showed a cytotoxic concentration (CC50) at 5 days in the series “in vitro” of 8790 nM.
For `C[C@H]1CC[C@]2(CC(=O)N(Cc3ccc4c(cnn4C)c3)O2)[C@H]2CN1C(=O)c1c(O)c(=O)c(C(=O)NCc3c(F)cc(F)cc3F)cn12` [Example 103, (3′S,5S,7′R)-12′-hydroxy-3′-methyl-2-((1-methyl-1H-indazol-5-yl)methyl)-1′,3,11′-trioxo-N-(2,4,6-trifluorobenzyl)-1′,4′,5′,11′-tetrahydro-3′H,7′H-spiro[isoxazolidine-5,6′-[2,7]methanopyrido[1,2-a][1,4]diazonine]-10′-carboxamide], the values for the pEC50 in the series with HIV-1 (IIIB), in the series with pLAI reporter virus (read-out: RLUC 50% HS EC50) and with pLAI reporter virus (read-out: RLUC CCM EC50) were 8.82, 9.40 and 9.70, respectively. The CC50 at 5 days in the series “in vitro” was at least 50000 nM.
For `C[C@H]1CC[C@]2(CC(=O)N(Cc3cnn(C)n3)O2)[C@H]2CN1C(=O)c1c(O)c(=O)c(C(=O)NCc3c(F)cc(F)cc3F)cn12` [Example 104, (3′S,5S,7′R)-12′-hydroxy-3′-methyl-2-((2-methyl-2H-1,2,3-triazol-4-yl)methyl)-1′,3,11′-trioxo-N-(2,4,6-trifluorobenzyl)-1′,4′,5′,11′-tetrahydro-3′H,7′H-spiro[isoxazolidine-5,6′-[2,7]methanopyrido[1,2-a][1,4]diazonine]-10′-carboxamide], in that order: 8.59, 9.52, 9.05 and at least 50000 nM.
For `C[C@H]1CC[C@]2(CC(=O)N(CCc3ccccc3)O2)[C@H]2CN1C(=O)c1c(O)c(=O)c(C(=O)NCc3c(F)cc(F)cc3F)cn12` [Example 105, (3′S,5S,7′R)-12′-hydroxy-3′-methyl-1′,3,11′-trioxo-2-phenethyl-N-(2,4,6-trifluorobenzyl)-1′,4′,5′,11′-tetrahydro-3′H,7′H-spiro[isoxazolidine-5,6′-[2,7]methanopyrido[1,2-a][1,4]diazonine]-10′-carboxamide], in that order: 8.92, 7.81, 9.52 and at least 50000 nM.
The matching figures for `C[C@H]1CC[C@]2(CC(=O)N(Cc3cccc4ccccc34)O2)[C@H]2CN1C(=O)c1c(O)c(=O)c(C(=O)NCc3c(F)cc(F)cc3F)cn12` [Example 106, (3′S,5S,7′R)-12′-hydroxy-3′-methyl-2-(naphthalen-1-ylmethyl)-1′,3,11′-trioxo-N-(2,4,6-trifluorobenzyl)-1′,4′,5′,11′-tetrahydro-3′H,7′H-spiro[isoxazolidine-5,6′-[2,7]methanopyrido[1,2-a][1,4]diazonine]-10′-carboxamide]: 9.05, 7.19, 9.70 and at least 50000 nM.
Take `C[C@H]1CC[C@]2(CC(=O)N(Cc3ccc4ccccc4c3)O2)[C@H]2CN1C(=O)c1c(O)c(=O)c(C(=O)NCc3c(F)cc(F)cc3F)cn12` [Example 107, (3′S,5S,7′R)-12′-hydroxy-3′-methyl-2-(naphthalen-2-ylmethyl)-1′,3,11′-trioxo-N-(2,4,6-trifluorobenzyl)-1′,4′,5′,11′-tetrahydro-3′H,7′H-spiro[isoxazolidine-5,6′-[2,7]methanopyrido[1,2-a][1,4]diazonine]-10′-carboxamide]: the negative logarithm of the EC50 (pEC50) is 9.10 with HIV-1 (IIIB), 7.99 in the series with pLAI reporter virus (read-out: RLUC 50% HS EC50) and 9.52 with pLAI reporter virus (read-out: RLUC CCM EC50). For the same molecule, the 50% cytotoxic concentration (CC50) at 5 days in “in vitro” was at least 50000 nM.
The matching figures for `C[C@H]1CC[C@]2(CC(=O)N(C)O2)[C@H]2CN1C(=O)c1c(O)c(=O)c(C(=O)NCc3c(F)cc(F)cc3F)cn12` [Example 108, (3′S,5S,7′R)-12′-hydroxy-2,3′-dimethyl-1′,3,11′-trioxo-N-(2,4,6-trifluorobenzyl)-1′,4′,5′,11′-tetrahydro-3′H,7′H-spiro[isoxazolidine-5,6′-[2,7]methanopyrido[1,2-a][1,4]diazonine]-10′-carboxamide]: 8.46, 8.11, 9.30 and at least 50000 nM.
